Laboratory results as given in patent publication US20110230431A1, “FOSFOMYCIN/TOBRAMYCIN COMBINATIONS FOR THE TREATMENT AND PREVENTION OF OPHTHALMIC, OTOLOGICAL AND DERMATOLOGICAL INFECTIONS” (Gilead Sciences, Inc., priority 2008, published 2011).
Like-named read-outs stand apart in the source and are kept apart here.

Experiments:
[1] = system: Cell Wall Synthesis in P. aeruginosa ATCC 27853; experiment: Macromolecular biosynthesis: 3H-N-acetyl-D-glucosamine incorporation; assay type: cell-based, Pseudomonas aeruginosa; settings: Pseudomonas aeruginosa, ATCC27853, at 2 h relative to no-drug control, single experiment
Method: (§1) Picataway, N.J.) and N-acetyl-D-Glucosamine (^3H-NAG) (GE Healthcare Bio-Sciences), respectively (Baum, E Z, Antimicrob Agents Chernother 2001; 45 (11): 3182-3188). A single colony of P. aeruginosa ATCC 27853 was inoculated into 10 mL of CAMHB and incubated for 16 h, at 37° C., 200 rpm in a shaking water bath. […] At various time points, 100 μl aliquots (triplicate) of culture were removed and added to 100 μl of 20% TCA (VWR) in 96-well flat bottom trays (VWR). Plates were incubated on crushed ice for 60 min to precipitate the incorporated ^3H-precursors. Samples were harvested onto glass fibre filters (GFC) (PerkinElmer; Waltham, Mass.). Filters were washed two times with 35 mL of normal saline to remove unincorporated isotope followed by one wash with 35 mL of 90% ETOH (VWR). Filters were dried under a lamp for 1 h to reduce remaining moisture and then sealed in bags containing 5 mL of scintillation cocktail (Betaplate Scint; PerkinElmer). Counts per minute (CPM) were determined using a Wallac MicroBeta Trilux (PerkinElmer). Mean CPM±standard deviation (SD) were determined for each treatment group. Background counts consisting of a media-only sample were subtracted from the no-drug and antibiotic treatment groups. The percent inhibition of incorporation was determined relative to the no-drug controls. The activities of the three drugs were compared by calculating the time to 50% inhibition (T1/2), and statistical differences at each time point were evaluated by the Analysis of Variance (ANOVA; GraphPad Prisma software package 3.03; GraphPad Software, Inc., San Diego, Calif.). Each curve represents 4 replicate experiments, each time point performed in triplicate.

P. aeruginosa [2] = experiment: MIC by agar plate dilution method (CLSI); assay type: cell-based, Pseudomonas aeruginosa; settings: Pseudomonas aeruginosa, read-out: MIC
From the text: (§2) P. aeruginosa strains isolated from patients with cystic fibrosis (CF) were obtained from Children's Hospital and Regional Medical Center (Seattle, Wash.). Clinical isolates of Escherichia coli and Staphylococcus aureus were obtained from The Jones Group Laboratories (JMI; North Liberty, Iowa) and The Clinical Microbiology Institute (CMI; Wilsonville, Oreg.). P. aeruginosa 27853, S. aureus 29213, and E. coli 25922 served as quality control strains^1 and were obtained from The America Type Culture Collection (ATCC; Manassas, Va.). P. aeruginosa ATCC 27853, a fosfomycin and tobramycin susceptible strain, was used in macromolecular biosynthesis and tobramycin uptake experiments. Stock cultures were maintained at −80° C. in Cation-Adjusted Mueller-Hinton Broth (CAMHB) (Remel; Lenexa, Kans.) supplemented with 20% glycerol (VWR: West Chester, Pa.). Cultures for routine use were grown on tryptic soy agar plates+5% sheeps blood (PML Microbiologicals Inc.; Wilsonville, Oreg.) and stored at 4° C.
(§3) MICs were determined by the agar plate dilution method according to CLSI guidelines (National Committee for Clinical Laboratory Standards. M7-A6. 6th ed. Villanova (Pa.): NCCLS, 2003; M100-S14. Villanova (Pa.): NCCLS, 2004).

E. coli = assay type: cell-based, Escherichia coli
Method: (§4) Development of resistance after a single exposure to antibiotic was determined for both clinical and reference isolates of P. aeruginosa, S. aureus, and E. coli. Late Log-phase cultures were centrifuged at 1,400×g at room temperature for 20 min and the cell pellets resuspended in CAMHB. […] The culture plates were incubated at 37° C. for 48 h and the number of colonies on each plate was enumerated manually. The spontaneous mutation frequency (SMF) resulting in antibiotic resistance was calculated by dividing the number of bacteria growing at the defined antibiotic concentration by the number of bacteria in the inoculum (Martinex, J L, Antimicrob Agents Chemother 2000; 44 (1):1771-1777).

S. aureus = experiment: MIC by agar plate dilution method (CLSI); assay type: cell-based, Staphylococcus aureus; settings: Staphylococcus aureus, read-out: MIC
From the text: as §2, §3

[3] = system: Protein Synthesis in P. aeruginosa ATCC 27853; experiment: Macromolecular biosynthesis: 3H-amino acid incorporation; assay type: cell-based, Pseudomonas aeruginosa
Method: as §1

P. aeruginosa ATCC 27853 = experiment: Time-kill experiments in CAMHB with 2% mucin; assay type: cell-based, Pseudomonas aeruginosa
Method: Time-kill experiments were performed according to a modified CLSI method (National Committee for Clinical Laboratory Standards. M-26A. Villanova (Pa.): NCCLS, 1999). […] Bacterial cultures and antibiotic(s) were incubated at 37° C. in a shaking water bath (200 rpm) and killing activity assessed at 0, 1, 2, 4, 6 and 24 h. Antibiotics that reduced the original inoculum by ≧3-Log10 were considered bactericidal. Antibiotics that reduced the original inoculum by ≦2-Log10 were considered bacteriostatic.

P. aeruginosa [4] = assay type: cell-based, Pseudomonas aeruginosa
Method: as §4

## C[C@@H]1O[C@@H]1P(=O)(O)O [Fosfomycin, fosfomycin disodium]
[1]; 3.2 μg/mL
  inhibition at 3.2 µg/mL: 8%
[1]; 6.4 μg/mL
  inhibition at 6.4 µg/mL: 14%
[1]; 12.8 μg/mL
  inhibition at 12.8 µg/mL: 3%
P. aeruginosa [2]; ATCC27853, P. aeruginosa ATCC 27853
  MIC: 4 µg/mL
P. aeruginosa [2]; P. aeruginosa C002
  MIC: 4 µg/mL
P. aeruginosa [2]; P. aeruginosa C003
  MIC: 16 µg/mL
P. aeruginosa [2]; P. aeruginosa C013
  MIC: 32 µg/mL
P. aeruginosa [2]; P. aeruginosa C014
  MIC: 8 µg/mL
E. coli; E. coli ATCC 25922, 4× MIC
  Frequency of Resistance 4× MIC: 1.9 × 10^−5
E. coli; E. coli ATCC 25922, 8× MIC
  Frequency of Resistance 8× MIC: 6.0 × 10^−6
E. coli; E. coli ATCC 25922, 16× MIC
  Frequency of Resistance 16× MIC: 2.5 × 10^−5
E. coli; E. coli C032, 4× MIC
  Frequency of Resistance 4× MIC: 4.4 × 10^−5
E. coli; E. coli C032, 8× MIC
  Frequency of Resistance 8× MIC: 7.8 × 10^−5
E. coli; E. coli C032, 16× MIC
  Frequency of Resistance 16× MIC: 2.1 × 10^−6
E. coli; E. coli C036, 4× MIC
  Frequency of Resistance 4× MIC: 1.1 × 10^−6
E. coli; E. coli C036, 8× MIC
  Frequency of Resistance 8× MIC: 2.3 × 10^−6
E. coli; E. coli C036, 16× MIC
  Frequency of Resistance 16× MIC: 3.4 × 10^−6
E. coli; E. coli C037, 4× MIC
  Frequency of Resistance 4× MIC: 1.9 × 10^−6
E. coli; E. coli C037, 8× MIC
  Frequency of Resistance 8× MIC: 2.9 × 10^−6
E. coli; E. coli C037, 16× MIC
  Frequency of Resistance 16× MIC: 8.6 × 10^−6
E. coli; E. coli C294, 4× MIC
  Frequency of Resistance 4× MIC: 7.9 × 10^−5
E. coli; E. coli C294, 8× MIC
  Frequency of Resistance 8× MIC: 5.4 × 10^−5
E. coli; E. coli C294, 16× MIC
  Frequency of Resistance 16× MIC: 6.3 × 10^−5
S. aureus; ATCC29213, S. aureus ATCC 29213
  MIC: 2 µg/mL
S. aureus; S. aureus C051
  MIC: 1 µg/mL
S. aureus; S. aureus C053
  MIC: 1 µg/mL
S. aureus; S. aureus C055
  MIC: 8 µg/mL
S. aureus; S. aureus C057
  MIC: 2 µg/mL
[3]; 6.4 μg/mL (FIG. 5)
  time to 50% inhibition (T1/2) of protein synthesis: 2.42 h
[3]; Pseudomonas aeruginosa, ATCC27853, 3.2 μg/mL, at 2 h relative to no-drug control, single experiment
  inhibition at 3.2 µg/mL: 0%
[3]; Pseudomonas aeruginosa, ATCC27853, 6.4 μg/mL, at 2 h relative to no-drug control, single experiment
  inhibition at 6.4 µg/mL: 21%
[3]; Pseudomonas aeruginosa, ATCC27853, 12.8 μg/mL, at 2 h relative to no-drug control, single experiment
  inhibition at 12.8 µg/mL: 9%
P. aeruginosa ATCC 27853; 24 h, FT4:1 16 μg/mL, fosfomycin 12.8 μg/mL, tobramycin 3.2 μg/mL, mucin, FIG. 4
  killing activity at 24 h: re-growth of the bacterial culture
P. aeruginosa ATCC 27853; FT4:1 at 4×MIC (16 μg/mL), component weights fosfomycin 12.8 μg/mL, tobramycin 3.2 μg/mL, mucin, FIG. 4
  killing activity: bacteriostatic killing
P. aeruginosa ATCC 27853; multiples of the MIC, FIG. 1-3
  killing activity (bactericidal ≧3-Log10, bacteriostatic ≦2-Log10): bacteriostatic
P. aeruginosa [4]; P. aeruginosa ATCC 27853, 4× MIC
  Frequency of Resistance 4× MIC: 7.2 × 10^−4
P. aeruginosa [4]; P. aeruginosa ATCC 27853, 8× MIC
  Frequency of Resistance 8× MIC: 1.1 × 10^−5
P. aeruginosa [4]; P. aeruginosa ATCC 27853, 16× MIC
  Frequency of Resistance 16× MIC: 7.2 × 10^−5
P. aeruginosa [4]; P. aeruginosa C002, 4× MIC
  Frequency of Resistance 4× MIC: 6.5 × 10^−3
P. aeruginosa [4]; P. aeruginosa C002, 8× MIC
  Frequency of Resistance 8× MIC: 1.1 × 10^−4
P. aeruginosa [4]; P. aeruginosa C002, 16× MIC
  Frequency of Resistance 16× MIC: 4.6 × 10^−4
P. aeruginosa [4]; P. aeruginosa C003, 4× MIC
  Frequency of Resistance 4× MIC: 1.1 × 10^−6
P. aeruginosa [4]; P. aeruginosa C003, 8× MIC
  Frequency of Resistance 8× MIC: 9.0 × 10^−5
P. aeruginosa [4]; P. aeruginosa C003, 16× MIC
  Frequency of Resistance 16× MIC: 1.3 × 10^−4
P. aeruginosa [4]; P. aeruginosa C013, 4× MIC
  Frequency of Resistance 4× MIC: 9.2 × 10^−3
P. aeruginosa [4]; P. aeruginosa C013, 8× MIC
  Frequency of Resistance 8× MIC: 1.3 × 10^−5
P. aeruginosa [4]; P. aeruginosa C013, 16× MIC
  Frequency of Resistance 16× MIC: 1.3 × 10^−7
P. aeruginosa [4]; P. aeruginosa C014, 4× MIC
  Frequency of Resistance 4× MIC: 1.4 × 10^−4
P. aeruginosa [4]; P. aeruginosa C014, 8× MIC
  Frequency of Resistance 8× MIC: 1.3 × 10^−6
P. aeruginosa [4]; P. aeruginosa C014, 16× MIC
  Frequency of Resistance 16× MIC: 1.8 × 10^−6
